This is an account of results in patent publication US20250382297A1, “INHIBITORS OF FGFR2 AND FGFR3 AND USES THEREOF” (Insilico Medicine IP Limited, priority 2022, published 2025).

What is called IC50 is the concentration that inhibits the measured activity by half.

One assay concerns the target FGFR2 (Homo sapiens (Human), UniProt P21802). As to the kind of experiment: FGFR biochemical assay (LanthaScreen TR-FRET kinase assay), FGFR2. On the technique in general: Time-resolved FRET reads energy transfer from a long-lived donor to a nearby acceptor.
Another assay addresses FGFR3 (Homo sapiens (Human), UniProt P22607). As to the kind of experiment: FGFR biochemical assay (LanthaScreen TR-FRET kinase assay), FGFR3.
For the next assay, the target named is FGFR1 (Homo sapiens (Human), UniProt P11362). Briefly: FGFR biochemical assay (LanthaScreen TR-FRET kinase assay), FGFR1.
The mark [1] stands for this setting: read-out: FGFR2 IC50, incubation with enzyme at room temperature for 10 minutes before substrate, ATP 22 μM, FGFR2 0.01 nM.
Where [2] appears, read: read-out: FGFR3 IC50, incubation with enzyme at room temperature for 10 minutes before substrate, ATP 35 μM, FGFR3 0.1 nM.
Setting [3] is: read-out: FGFR2 IC50, * incubation at room temperature for 60 minutes before addition of substrate solution, ATP 22 μM, FGFR2 0.01 nM.
The mark [4] stands for this setting: read-out: FGFR3 IC50, * incubation at room temperature for 60 minutes before addition of substrate solution, ATP 35 μM, FGFR3 0.1 nM.
[5] abbreviates: read-out: FGFR1 IC50, incubation with enzyme at room temperature for 10 minutes before substrate, ATP 28 μM, FGFR1 0.01 nM.

Each structure is given as a SMILES string. Read-outs that look alike come from different tables or passages of the source.

Sequence of FGFR1 (P11362 22-822): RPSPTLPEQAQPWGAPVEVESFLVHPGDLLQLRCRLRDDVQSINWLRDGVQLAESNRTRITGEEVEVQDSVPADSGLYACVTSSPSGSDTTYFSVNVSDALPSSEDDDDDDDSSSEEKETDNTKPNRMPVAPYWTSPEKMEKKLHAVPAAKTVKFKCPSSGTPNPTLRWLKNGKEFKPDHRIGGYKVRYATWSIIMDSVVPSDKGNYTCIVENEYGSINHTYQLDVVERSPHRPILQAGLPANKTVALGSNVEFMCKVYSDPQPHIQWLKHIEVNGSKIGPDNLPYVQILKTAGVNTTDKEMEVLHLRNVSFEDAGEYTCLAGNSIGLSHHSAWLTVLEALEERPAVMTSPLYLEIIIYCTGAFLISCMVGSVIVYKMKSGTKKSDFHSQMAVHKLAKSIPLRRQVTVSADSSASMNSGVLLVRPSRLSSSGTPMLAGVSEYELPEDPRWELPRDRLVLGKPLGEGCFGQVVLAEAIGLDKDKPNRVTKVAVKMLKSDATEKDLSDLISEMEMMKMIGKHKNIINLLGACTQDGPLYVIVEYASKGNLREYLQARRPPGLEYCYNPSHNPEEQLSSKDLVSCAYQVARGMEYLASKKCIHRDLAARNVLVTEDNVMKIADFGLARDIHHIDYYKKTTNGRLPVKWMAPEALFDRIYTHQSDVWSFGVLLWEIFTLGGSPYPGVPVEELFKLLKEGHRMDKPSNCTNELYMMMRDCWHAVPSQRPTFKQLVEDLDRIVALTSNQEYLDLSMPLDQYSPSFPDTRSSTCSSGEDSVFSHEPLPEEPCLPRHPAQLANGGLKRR
Sequence of FGFR2 (P21802 22-821): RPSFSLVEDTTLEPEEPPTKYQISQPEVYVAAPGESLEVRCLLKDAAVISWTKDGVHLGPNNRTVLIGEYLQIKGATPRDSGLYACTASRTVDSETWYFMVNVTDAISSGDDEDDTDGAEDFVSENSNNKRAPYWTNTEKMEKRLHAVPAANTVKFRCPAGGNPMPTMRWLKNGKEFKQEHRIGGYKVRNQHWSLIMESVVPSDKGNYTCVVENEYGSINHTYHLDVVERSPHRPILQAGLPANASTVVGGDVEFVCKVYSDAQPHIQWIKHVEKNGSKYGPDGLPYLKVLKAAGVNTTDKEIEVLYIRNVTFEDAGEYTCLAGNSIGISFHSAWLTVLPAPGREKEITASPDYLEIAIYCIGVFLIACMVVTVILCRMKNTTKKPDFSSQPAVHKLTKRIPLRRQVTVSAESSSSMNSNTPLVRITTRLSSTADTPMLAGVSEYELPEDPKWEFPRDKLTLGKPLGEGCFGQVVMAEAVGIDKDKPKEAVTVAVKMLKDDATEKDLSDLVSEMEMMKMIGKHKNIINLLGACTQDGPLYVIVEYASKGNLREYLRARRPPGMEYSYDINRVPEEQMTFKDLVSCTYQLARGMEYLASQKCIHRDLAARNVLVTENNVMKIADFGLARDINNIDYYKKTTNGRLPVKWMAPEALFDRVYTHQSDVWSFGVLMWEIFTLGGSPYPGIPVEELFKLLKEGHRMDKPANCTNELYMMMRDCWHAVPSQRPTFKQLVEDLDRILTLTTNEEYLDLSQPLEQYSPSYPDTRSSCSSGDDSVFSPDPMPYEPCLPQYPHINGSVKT
Sequence of FGFR3 (P22607 23-806): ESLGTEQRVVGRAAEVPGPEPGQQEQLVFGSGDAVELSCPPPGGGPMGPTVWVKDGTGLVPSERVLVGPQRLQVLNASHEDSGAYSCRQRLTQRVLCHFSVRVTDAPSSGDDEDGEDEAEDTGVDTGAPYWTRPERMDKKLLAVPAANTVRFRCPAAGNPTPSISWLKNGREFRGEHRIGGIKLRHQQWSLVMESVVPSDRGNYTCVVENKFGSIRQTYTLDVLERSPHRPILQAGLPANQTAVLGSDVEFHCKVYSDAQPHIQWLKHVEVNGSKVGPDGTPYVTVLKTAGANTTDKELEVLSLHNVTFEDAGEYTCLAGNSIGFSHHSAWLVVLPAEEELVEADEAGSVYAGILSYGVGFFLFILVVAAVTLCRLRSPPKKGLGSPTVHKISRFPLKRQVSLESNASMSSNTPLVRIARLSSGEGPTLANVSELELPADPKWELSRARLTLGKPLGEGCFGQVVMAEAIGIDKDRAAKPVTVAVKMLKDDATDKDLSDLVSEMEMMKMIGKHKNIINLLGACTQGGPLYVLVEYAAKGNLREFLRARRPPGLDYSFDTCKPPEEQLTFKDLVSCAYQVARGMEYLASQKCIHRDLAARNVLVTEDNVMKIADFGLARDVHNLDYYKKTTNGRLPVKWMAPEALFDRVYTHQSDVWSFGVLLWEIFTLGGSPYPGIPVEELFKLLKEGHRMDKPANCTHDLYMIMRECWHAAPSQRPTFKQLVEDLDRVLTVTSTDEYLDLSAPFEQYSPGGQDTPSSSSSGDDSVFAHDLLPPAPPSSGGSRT
Method for FGFR1: (§1) Convert Ratio values to percent inhibition values (Percent inhibition=(max−sample Ratio)/(max−min)*100) where “min” means the Ratio of no enzyme control and “max” means the Ratio of DMSO control. • Data are analyzed and curve fitting is performed by XLFit Excel add-in version 5.4.0.8. The IC50 calculation equation is: Y=Bottom+(Top-Bottom)/(1+ (IC50/X)^HillSlope.
Method for FGFR2: as §1
Method for FGFR3: as §1

With `C=C(F)C(=O)Nc1ccc(-c2c(-c3ccc(Oc4nccc(C)n4)c(F)c3)c(C(N)=O)c3ccc(C)nn23)cc1` [Example 93, 6-(3-fluoro-4-((4-methylpyrimidin-2-yl)oxy)phenyl)-7-(4-(2-fluoroacrylamido)phenyl)-2-methylpyrrolo[1,2-b]pyridazine-5-carboxamide], the results for the IC50 on FGFR2, against FGFR3 and against FGFR1 were 10 to 100 nM, 10 to 100 nM and 100 to 1000 nM, respectively.

`C=CC(=O)Nc1ccc(-c2c(-c3ccc(Oc4nccc(C)n4)c(F)c3)c(C(N)=O)c3cnc(CO)cn23)cc1` [Example 78, 6-(4-acrylamidophenyl)-7-(3-fluoro-4-((4-methylpyrimidin-2-yl)oxy)phenyl)-3-(hydroxymethyl)pyrrolo[1,2-a]pyrazine-8-carboxamide]: the IC50 is below 10 nM on FGFR2 (setting [1]), below 10 nM on FGFR3 (setting [2]) and 100 to 1000 nM on FGFR1.

Consider `C=CC(=O)N1CC=C(c2c(-c3ccc(Oc4nccc(C)n4)c(F)c3)c(C(N)=O)c3cnc(C)cn23)CC1` [Example 101, 6-(1-acryloyl-1,2,3,6-tetrahydropyridin-4-yl)-7-(3-fluoro-4-((4-methylpyrimidin-2-yl)oxy)phenyl)-3-methylpyrrolo[1,2-a]pyrazine-8-carboxamide], for which the IC50 at FGFR2, against FGFR3 and on FGFR1 was 10 to 100 nM in each case.

Regarding `C=C(F)C(=O)Nc1ccc(-c2c(-c3ccc(Oc4nccc(C)n4)c(F)c3)c(C(N)=O)c3cnc(CCO)cn23)c(F)c1` [Example 82, 7-(3-fluoro-4-((4-methylpyrimidin-2-yl)oxy)phenyl)-6-(2-fluoro-4-(2-fluoroacrylamido)phenyl)-3-(2-hydroxyethyl)pyrrolo[1,2-a]pyrazine-8-carboxamide], the values for the IC50 at FGFR2 (setting [3]), on FGFR3 (setting [4]) and against FGFR1 were below 10 nM, below 10 nM and 10 to 100 nM, respectively.

`C=CC(=O)Nc1ccc(-c2c(-c3ccc(Oc4cccc(C)n4)cc3)c(C(N)=O)c3cnccn23)cn1` [Example 3, 6-(6-acrylamidopyridin-3-yl)-7-(4-((6-methylpyridin-2-yl)oxy)phenyl)pyrrolo[1,2-a]pyrazine-8-carboxamide]: the IC50 at FGFR2 (setting [1]), at FGFR3 (setting [2]) and on FGFR1 (setting [5]) was below 10 nM in each case.

`C=CC(=O)Nc1ccc(-c2c(-c3ccc(Oc4cccc(C)n4)cc3)c(C(N)=O)c3cnc(CN(C)C)cn23)cc1` [Example 29, 6-(4-acrylamidophenyl)-3-((dimethylamino)methyl)-7-(4-((6-methylpyridin-2-yl)oxy)phenyl)pyrrolo[1,2-a]pyrazine-8-carboxamide]: the IC50 was 10 to 100 nM at FGFR2, 100 to 1000 nM on FGFR3 and above 1000 nM on FGFR1 (setting [5]).

`C=CC(=O)Nc1ccc(-c2c(-c3ccc(C(=O)N4CC5(CCC5)C4)cc3)c(C(N)=O)c3cnccn23)cc1` [Example 30, 7-(4-(2-azaspiro[3.3]heptane-2-carbonyl)phenyl)-6-(4-acrylamidophenyl)pyrrolo[1,2-a]pyrazine-8-carboxamide]: the half-inhibitory concentration (IC50) against FGFR2 is 10 to 100 nM; against FGFR3 it was 100 to 1000 nM; on FGFR1 it was 100 to 1000 nM.

Consider `C=C(F)C(=O)Nc1ccc(-c2c(-c3ccc(Oc4nccc(C)n4)c(F)c3)c(C(N)=O)c3cc(C)ncn23)cc1` [Example 85, 6-(3-fluoro-4-((4-methylpyrimidin-2-yl)oxy)phenyl)-7-(4-(2-fluoroacrylamido)phenyl)-3-methylpyrrolo[1,2-c]pyrimidine-5-carboxamide], for which the IC50 at FGFR2 (setting [3]) is below 10 nM; at FGFR3, 10 to 100 nM; on FGFR1 it was 100 to 1000 nM.

With `C=CC(=O)Nc1ccc(-c2c(-c3ccc(Oc4ccccn4)cc3)c(C(N)=O)c3cnccn23)cc1` [Example 26, 6-(4-acrylamidophenyl)-7-(4-(pyridin-2-yloxy)phenyl)pyrrolo[1,2-a]pyrazine-8-carboxamide], the IC50 at FGFR2 (setting [1]) was below 10 nM; at FGFR3, 10 to 100 nM; at FGFR1, 100 to 1000 nM.

For `C=CC(=O)Nc1ccc(-c2c(-c3ccc(Oc4cccc(C)n4)cc3)c(C(N)=O)c3cccnn23)cc1` [Example 20, 7-(4-acrylamidophenyl)-6-(4-((6-methylpyridin-2-yl)oxy)phenyl)pyrrolo[1,2-b]pyridazine-5-carboxamide], the results for the IC50 on FGFR2 (setting [1]), against FGFR3 and against FGFR1 were below 10 nM, 10 to 100 nM and 10 to 100 nM, respectively.

Turning to `Cc1ccnc(Oc2ccc(-c3c(C(N)=O)c4cnc(CO)cn4c3-c3ccc(NC(=O)/C=C/CN(C)C)cc3)cc2)n1` [Example 79, (E)-6-(4-(4-(dimethylamino)but-2-enamido)phenyl)-3-(hydroxymethyl)-7-(4-((4-methylpyrimidin-2-yl)oxy)phenyl)pyrrolo[1,2-a]pyrazine-8-carboxamide], the concentration for half-maximal inhibition (IC50) was below 10 nM at FGFR2 (setting [1]), 10 to 100 nM against FGFR3 and 10 to 100 nM against FGFR1.

Turning to `C=CC(=O)Nc1ccc(-c2c(-c3ccc(Oc4nccc(C)n4)c(F)c3)c(C(N)=O)c3cnc(C)cn23)cc1` [Example 35, 6-(4-acrylamidophenyl)-7-(3-fluoro-4-((4-methylpyrimidin-2-yl)oxy)phenyl)-3-methylpyrrolo[1,2-a]pyrazine-8-carboxamide], the half-inhibitory concentration (IC50) at FGFR2 (setting [1]) is below 10 nM; on FGFR3 (setting [2]) it was below 10 nM; at FGFR1, 10 to 100 nM.

On to `C=C(F)C(=O)Nc1ccc(-c2c(-c3ccc(Oc4nccc(C)n4)c(F)c3)c(C(N)=O)c3cc(C)cnn23)cc1` [Example 87, 6-(3-fluoro-4-((4-methylpyrimidin-2-yl)oxy)phenyl)-7-(4-(2-fluoroacrylamido)phenyl)-3-methylpyrrolo[1,2-b]pyridazine-5-carboxamide], for which the values for the IC50 on FGFR2 (setting [3]), at FGFR3 and at FGFR1 were below 10 nM, 10 to 100 nM and 10 to 100 nM, respectively.

`C=C(F)C(=O)Nc1ccc(-c2c(-c3ccc(Oc4nccc(C)n4)c(F)c3)c(C(N)=O)c3ccc(C)nn23)c(C)c1` [Example 94, 6-(3-fluoro-4-((4-methylpyrimidin-2-yl)oxy)phenyl)-7-(4-(2-fluoroacrylamido)-2-methylphenyl)-2-methylpyrrolo[1,2-b]pyridazine-5-carboxamide]: the results for the IC50 at FGFR2 (setting [3]), against FGFR3 and at FGFR1 were below 10 nM, 10 to 100 nM and 10 to 100 nM, respectively.

Turning to `C=CC(=O)Nc1ccc(-c2c(-c3ccc(S(=O)(=O)C4CC4)cc3)c(C(N)=O)c3cnccn23)cc1` [Example 27, 6-(4-acrylamidophenyl)-7-(4-(cyclopropylsulfonyl)phenyl)pyrrolo[1,2-a]pyrazine-8-carboxamide], the 50% inhibitory concentration (IC50) against FGFR2 is 100 to 1000 nM; against FGFR3, 100 to 1000 nM; on FGFR1 (setting [5]), above 1000 nM.

With `C=C(F)C(=O)Nc1ccc(-c2c(-c3ccc(Oc4nccc(C)n4)cc3)c(C(N)=O)c3cnc(C(F)(F)F)cn23)cc1` [Example 56, 6-(4-(2-fluoroacrylamido)phenyl)-7-(4-((4-methylpyrimidin-2-yl)oxy)phenyl)-3-(trifluoromethyl)pyrrolo[1,2-a]pyrazine-8-carboxamide], the figures for the IC50 against FGFR2, against FGFR3 and against FGFR1 were 10 to 100 nM, 100 to 1000 nM and 100 to 1000 nM, respectively.

As to `C=C(F)C(=O)N1CCc2cc(-c3c(-c4ccc(Oc5nccc(C)n5)c(F)c4)c(C(N)=O)c4ccc(C)nn34)c(C)cc21` [Example 96, 6-(3-fluoro-4-((4-methylpyrimidin-2-yl)oxy)phenyl)-7-(1-(2-fluoroacryloyl)-6-methylindolin-5-yl)-2-methylpyrrolo[1,2-b]pyridazine-5-carboxamide], the values for the half-inhibitory concentration (IC50) at FGFR2 (setting [3]), at FGFR3 (setting [4]) and on FGFR1 were below 10 nM, below 10 nM and 10 to 100 nM, respectively.
